ChEMBL document CHEMBL5303763, “Data for DCP probe BI-3802” (2023)
Active and inactive are the calls of the source. No cut-off for these calls is given here.

Experiments:
[1] = target: D(2) dopamine receptor (Homo sapiens) (UniProt P14416); experiment: D2SH_AGON Eurofins SafetyScreen44 (BI); settings: filed as agonist, Compound concentration 10.0 uM
[2] = target: Glutamate NMDA receptor (Rattus norvegicus) (UniProt P35439+Q00959+Q00960+Q00961+Q62645+Q8VHN2+Q9R1M7); experiment: NMDA/R Eurofins SafetyScreen44 (BI); type: protein-complex assay; settings: Compound concentration 10.0 uM
[3] = target: Vasopressin V1a receptor (Homo sapiens) (UniProt P37288); experiment: V1A/HUM Eurofins SafetyScreen44 (BI); settings: Compound concentration 10.0 uM
Vasopressin V1a receptor (Homo sapiens), sequence (P37288 whole entry, looked up): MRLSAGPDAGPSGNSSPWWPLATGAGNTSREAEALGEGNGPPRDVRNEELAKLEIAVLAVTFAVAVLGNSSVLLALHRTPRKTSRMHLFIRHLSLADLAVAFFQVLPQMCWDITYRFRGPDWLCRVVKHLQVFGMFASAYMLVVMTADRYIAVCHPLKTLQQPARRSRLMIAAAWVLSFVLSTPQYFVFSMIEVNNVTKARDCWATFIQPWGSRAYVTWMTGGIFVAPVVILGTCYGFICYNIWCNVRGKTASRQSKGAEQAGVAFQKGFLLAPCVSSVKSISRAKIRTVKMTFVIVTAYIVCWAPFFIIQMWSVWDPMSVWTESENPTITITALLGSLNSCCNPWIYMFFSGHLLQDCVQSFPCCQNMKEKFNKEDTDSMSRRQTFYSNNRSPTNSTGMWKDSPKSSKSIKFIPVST

[4] = target: Androgen receptor (Homo sapiens) (UniProt P10275); experiment: ANDROGEN/H Eurofins SafetyScreen44 (BI); settings: Compound concentration 10.0 uM
[5] = target: Mu-type opioid receptor (Homo sapiens) (UniProt P35372); experiment: MU/H Eurofins SafetyScreen44 (BI); settings: Compound concentration 10.0 uM
Mu-type opioid receptor (Homo sapiens), sequence (P35372 whole entry): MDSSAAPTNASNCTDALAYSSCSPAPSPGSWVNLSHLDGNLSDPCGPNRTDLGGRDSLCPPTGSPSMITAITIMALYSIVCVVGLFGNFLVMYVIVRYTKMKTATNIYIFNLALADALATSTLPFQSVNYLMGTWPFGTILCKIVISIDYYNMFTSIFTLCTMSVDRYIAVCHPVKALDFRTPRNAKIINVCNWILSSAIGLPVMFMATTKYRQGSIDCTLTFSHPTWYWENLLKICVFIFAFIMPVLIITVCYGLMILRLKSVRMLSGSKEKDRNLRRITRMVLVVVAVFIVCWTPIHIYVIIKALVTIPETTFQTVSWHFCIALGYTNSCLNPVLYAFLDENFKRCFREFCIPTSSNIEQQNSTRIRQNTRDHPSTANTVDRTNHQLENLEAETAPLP

[6] = target: Cholecystokinin receptor type A (Homo sapiens) (UniProt P32238); experiment: CCKA/H Eurofins SafetyScreen44 (BI); settings: Compound concentration 10.0 uM
Cholecystokinin receptor type A (Homo sapiens), sequence (P32238 whole entry): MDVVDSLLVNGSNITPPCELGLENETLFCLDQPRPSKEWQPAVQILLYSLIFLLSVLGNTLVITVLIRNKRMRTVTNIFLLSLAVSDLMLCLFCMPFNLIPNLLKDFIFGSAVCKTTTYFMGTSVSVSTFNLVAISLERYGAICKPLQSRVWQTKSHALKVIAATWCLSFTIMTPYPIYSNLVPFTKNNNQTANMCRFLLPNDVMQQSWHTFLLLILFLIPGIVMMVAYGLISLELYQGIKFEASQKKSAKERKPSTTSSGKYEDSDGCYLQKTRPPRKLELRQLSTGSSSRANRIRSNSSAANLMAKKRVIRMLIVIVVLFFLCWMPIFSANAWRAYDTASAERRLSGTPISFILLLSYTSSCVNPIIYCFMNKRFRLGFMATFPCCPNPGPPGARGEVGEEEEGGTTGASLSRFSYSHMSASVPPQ

[7] = target: Muscarinic acetylcholine receptor M1 (Homo sapiens) (UniProt P11229); experiment: M1/H Eurofins SafetyScreen44 (BI); settings: Compound concentration 10.0 uM
Muscarinic acetylcholine receptor M1 (Homo sapiens), sequence (P11229 whole entry): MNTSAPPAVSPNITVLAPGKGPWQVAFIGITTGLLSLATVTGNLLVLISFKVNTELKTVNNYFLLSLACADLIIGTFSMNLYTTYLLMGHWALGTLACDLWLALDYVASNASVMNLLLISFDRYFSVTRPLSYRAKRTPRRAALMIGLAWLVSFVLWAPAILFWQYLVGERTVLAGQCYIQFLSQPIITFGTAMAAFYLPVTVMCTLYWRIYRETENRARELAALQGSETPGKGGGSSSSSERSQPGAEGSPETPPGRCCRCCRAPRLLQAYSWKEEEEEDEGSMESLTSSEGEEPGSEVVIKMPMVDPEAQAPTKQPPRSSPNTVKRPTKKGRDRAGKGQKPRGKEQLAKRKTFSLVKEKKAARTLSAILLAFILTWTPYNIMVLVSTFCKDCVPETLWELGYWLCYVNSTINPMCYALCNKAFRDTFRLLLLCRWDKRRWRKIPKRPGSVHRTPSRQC

[8] = target: T1, 5-hydroxytryptamine receptor 1A (Homo sapiens) (UniProt P08908); experiment: 5HT1A/H Eurofins SafetyScreen44 (BI); settings: Compound concentration 10.0 uM
T1 sequence (whole entry): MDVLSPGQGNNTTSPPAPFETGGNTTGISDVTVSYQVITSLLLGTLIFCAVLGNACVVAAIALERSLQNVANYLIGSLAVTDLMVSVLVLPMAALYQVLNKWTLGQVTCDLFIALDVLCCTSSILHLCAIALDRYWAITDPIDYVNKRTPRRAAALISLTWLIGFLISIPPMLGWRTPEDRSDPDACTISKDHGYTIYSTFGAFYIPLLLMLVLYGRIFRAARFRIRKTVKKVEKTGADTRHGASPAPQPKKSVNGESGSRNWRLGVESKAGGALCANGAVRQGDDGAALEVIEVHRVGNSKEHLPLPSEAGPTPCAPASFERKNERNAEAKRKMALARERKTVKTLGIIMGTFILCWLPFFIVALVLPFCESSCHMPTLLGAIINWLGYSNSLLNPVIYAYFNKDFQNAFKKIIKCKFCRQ

[9] = target: Muscarinic acetylcholine receptor M3 (Homo sapiens) (UniProt P20309); experiment: M3/H Eurofins SafetyScreen44 (BI); settings: Compound concentration 10.0 uM
Muscarinic acetylcholine receptor M3 (Homo sapiens), sequence (P20309 whole entry, looked up): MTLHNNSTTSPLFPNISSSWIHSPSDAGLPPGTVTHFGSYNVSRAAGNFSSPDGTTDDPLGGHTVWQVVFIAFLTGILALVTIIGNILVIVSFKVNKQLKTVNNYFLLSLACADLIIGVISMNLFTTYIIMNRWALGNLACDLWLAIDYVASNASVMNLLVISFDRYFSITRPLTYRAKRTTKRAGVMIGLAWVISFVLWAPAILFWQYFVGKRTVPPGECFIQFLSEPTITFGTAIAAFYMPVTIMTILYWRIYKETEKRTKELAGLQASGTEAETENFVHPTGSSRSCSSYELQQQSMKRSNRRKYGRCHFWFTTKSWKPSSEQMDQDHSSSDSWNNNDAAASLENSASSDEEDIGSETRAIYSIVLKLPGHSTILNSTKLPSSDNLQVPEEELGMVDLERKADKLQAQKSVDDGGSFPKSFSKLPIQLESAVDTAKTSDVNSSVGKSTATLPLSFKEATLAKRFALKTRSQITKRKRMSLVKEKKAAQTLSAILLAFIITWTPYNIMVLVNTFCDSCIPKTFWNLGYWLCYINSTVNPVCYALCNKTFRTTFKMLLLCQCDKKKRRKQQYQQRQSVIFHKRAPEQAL

[10] = target: Delta-type opioid receptor (Homo sapiens) (UniProt P41143); experiment: DELTA2/H Eurofins SafetyScreen44 (BI); settings: Compound concentration 10.0 uM
[11] = target: Adenosine receptor A2a (Homo sapiens) (UniProt P29274); experiment: A2A/H Eurofins SafetyScreen44 (BI); settings: filed as antagonist, Compound concentration 10.0 uM
Adenosine receptor A2a (Homo sapiens), sequence (P29274 whole entry): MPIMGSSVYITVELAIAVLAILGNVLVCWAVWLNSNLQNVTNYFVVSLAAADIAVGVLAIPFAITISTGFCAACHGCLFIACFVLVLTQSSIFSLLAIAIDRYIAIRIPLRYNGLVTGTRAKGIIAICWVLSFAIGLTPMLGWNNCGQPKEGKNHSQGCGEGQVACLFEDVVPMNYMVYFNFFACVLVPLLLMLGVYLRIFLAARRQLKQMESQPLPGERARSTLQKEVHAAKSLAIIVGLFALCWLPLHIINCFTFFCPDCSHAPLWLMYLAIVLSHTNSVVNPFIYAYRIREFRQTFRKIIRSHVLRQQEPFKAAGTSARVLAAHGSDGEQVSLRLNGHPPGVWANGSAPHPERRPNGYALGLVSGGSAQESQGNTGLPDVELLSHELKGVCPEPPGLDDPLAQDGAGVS

[12] = target: Endothelin-1 receptor (Homo sapiens) (UniProt P25101); experiment: ETA/H Eurofins SafetyScreen44 (BI); settings: Compound concentration 10.0 uM
[13] = target: T2, 5-hydroxytryptamine receptor 3A (Homo sapiens) (UniProt P46098); experiment: 5HT3/H Eurofins SafetyScreen44 (BI); settings: Compound concentration 10.0 uM
T2 sequence (whole entry): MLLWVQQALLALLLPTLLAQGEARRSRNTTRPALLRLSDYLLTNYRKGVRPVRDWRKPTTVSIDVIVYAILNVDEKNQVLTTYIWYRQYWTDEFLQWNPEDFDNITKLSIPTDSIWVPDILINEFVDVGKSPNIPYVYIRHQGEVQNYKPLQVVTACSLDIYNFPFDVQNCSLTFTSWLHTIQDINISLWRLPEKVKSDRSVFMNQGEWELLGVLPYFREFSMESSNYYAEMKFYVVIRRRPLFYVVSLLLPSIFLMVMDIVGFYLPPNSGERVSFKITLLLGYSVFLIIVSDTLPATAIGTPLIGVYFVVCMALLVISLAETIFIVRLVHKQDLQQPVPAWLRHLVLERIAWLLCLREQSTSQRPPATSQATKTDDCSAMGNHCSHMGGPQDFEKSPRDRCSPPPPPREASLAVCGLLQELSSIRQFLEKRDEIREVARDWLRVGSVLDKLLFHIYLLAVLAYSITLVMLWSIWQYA

[14] = target: D(1A) dopamine receptor (Homo sapiens) (UniProt P21728); experiment: D1/H Eurofins SafetyScreen44 (BI); settings: filed as antagonist, Compound concentration 10.0 uM
[15] = target: Beta-1 adrenergic receptor (Homo sapiens) (UniProt P08588); experiment: BETA1/HUM Eurofins SafetyScreen44 (BI); settings: Compound concentration 10.0 uM
Beta-1 adrenergic receptor (Homo sapiens), sequence (P08588 whole entry, looked up): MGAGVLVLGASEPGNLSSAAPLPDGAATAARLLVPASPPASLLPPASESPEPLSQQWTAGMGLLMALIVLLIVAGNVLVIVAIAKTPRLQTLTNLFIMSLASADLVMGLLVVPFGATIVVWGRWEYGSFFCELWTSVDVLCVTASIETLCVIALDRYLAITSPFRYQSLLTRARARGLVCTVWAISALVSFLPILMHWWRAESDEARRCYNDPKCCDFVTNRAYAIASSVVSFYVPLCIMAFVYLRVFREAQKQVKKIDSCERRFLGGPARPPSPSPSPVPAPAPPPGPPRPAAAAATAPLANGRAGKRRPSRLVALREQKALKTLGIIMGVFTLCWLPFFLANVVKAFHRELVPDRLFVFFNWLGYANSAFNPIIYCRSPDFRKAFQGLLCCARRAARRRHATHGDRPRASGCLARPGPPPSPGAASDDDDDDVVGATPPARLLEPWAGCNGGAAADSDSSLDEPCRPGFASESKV

[16] = target: B-cell lymphoma 6 protein (Homo sapiens, UniProt P41182); experiment: BCL6:BCOR ULight TR-FRET
[17] = target: T3, Alpha-2A adrenergic receptor (Homo sapiens) (UniProt P08913); experiment: ALPHA2A/HU Eurofins SafetyScreen44 (BI); settings: Compound concentration 10.0 uM
T3 sequence (whole entry): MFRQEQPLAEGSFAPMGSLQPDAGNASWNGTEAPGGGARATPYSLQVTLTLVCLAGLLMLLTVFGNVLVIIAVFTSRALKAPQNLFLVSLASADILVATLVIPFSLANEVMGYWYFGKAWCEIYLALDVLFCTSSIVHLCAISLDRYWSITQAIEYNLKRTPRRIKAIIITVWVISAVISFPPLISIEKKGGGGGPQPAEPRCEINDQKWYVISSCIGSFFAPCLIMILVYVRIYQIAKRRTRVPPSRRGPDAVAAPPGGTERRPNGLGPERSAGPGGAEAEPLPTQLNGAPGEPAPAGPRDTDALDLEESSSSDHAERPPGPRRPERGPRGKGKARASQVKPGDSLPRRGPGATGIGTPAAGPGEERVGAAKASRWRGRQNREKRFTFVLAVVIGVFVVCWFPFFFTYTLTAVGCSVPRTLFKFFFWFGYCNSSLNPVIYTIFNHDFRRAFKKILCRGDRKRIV

[18] = target: Angiotensin-converting enzyme (Homo sapiens) (UniProt P12821); experiment: ACE(HU_AMTCH400) Eurofins SafetyScreen44 (BI); settings: Compound concentration 10.0 uM
[19] = target: L-type Ca2+ channel (dihydropyridine site), Voltage-dependent L-type calcium channel subunit alpha-1C (Rattus norvegicus, UniProt P22002); experiment: CA+/DHPSI/R Eurofins SafetyScreen44 (BI); settings: rat brain, probe [3H](+)PN200-110, compound concentration 10 uM, read-out: % Ctrl
[20] = target: Beta-2 adrenergic receptor (Homo sapiens) (UniProt P07550); experiment: BETA2/HUM Eurofins SafetyScreen44 (BI); settings: filed as antagonist, Compound concentration 10.0 uM
hERG (KCNH2) = hERG (KCNH2) (Homo sapiens, UniProt Q12809); experiment: HERG_DOFETILIDE Eurofins SafetyScreen44 (BI); settings: probe [3H] Dofetilide, compound concentration 10 uM, read-out: % Ctrl
[21] = target: Alpha-1A adrenergic receptor (Homo sapiens) (UniProt P35348); experiment: ALPHA1AH_ANTAG Eurofins SafetyScreen44 (BI); settings: filed as antagonist, Compound concentration 10.0 uM
[22] = target: cGMP-inhibited 3',5'-cyclic phosphodiesterase 3A (Homo sapiens) (UniProt Q14432); experiment: PDE3A Eurofins SafetyScreen44 (BI); settings: Compound concentration 10.0 uM
cGMP-inhibited 3',5'-cyclic phosphodiesterase 3A (Homo sapiens), sequence (Q14432 whole entry): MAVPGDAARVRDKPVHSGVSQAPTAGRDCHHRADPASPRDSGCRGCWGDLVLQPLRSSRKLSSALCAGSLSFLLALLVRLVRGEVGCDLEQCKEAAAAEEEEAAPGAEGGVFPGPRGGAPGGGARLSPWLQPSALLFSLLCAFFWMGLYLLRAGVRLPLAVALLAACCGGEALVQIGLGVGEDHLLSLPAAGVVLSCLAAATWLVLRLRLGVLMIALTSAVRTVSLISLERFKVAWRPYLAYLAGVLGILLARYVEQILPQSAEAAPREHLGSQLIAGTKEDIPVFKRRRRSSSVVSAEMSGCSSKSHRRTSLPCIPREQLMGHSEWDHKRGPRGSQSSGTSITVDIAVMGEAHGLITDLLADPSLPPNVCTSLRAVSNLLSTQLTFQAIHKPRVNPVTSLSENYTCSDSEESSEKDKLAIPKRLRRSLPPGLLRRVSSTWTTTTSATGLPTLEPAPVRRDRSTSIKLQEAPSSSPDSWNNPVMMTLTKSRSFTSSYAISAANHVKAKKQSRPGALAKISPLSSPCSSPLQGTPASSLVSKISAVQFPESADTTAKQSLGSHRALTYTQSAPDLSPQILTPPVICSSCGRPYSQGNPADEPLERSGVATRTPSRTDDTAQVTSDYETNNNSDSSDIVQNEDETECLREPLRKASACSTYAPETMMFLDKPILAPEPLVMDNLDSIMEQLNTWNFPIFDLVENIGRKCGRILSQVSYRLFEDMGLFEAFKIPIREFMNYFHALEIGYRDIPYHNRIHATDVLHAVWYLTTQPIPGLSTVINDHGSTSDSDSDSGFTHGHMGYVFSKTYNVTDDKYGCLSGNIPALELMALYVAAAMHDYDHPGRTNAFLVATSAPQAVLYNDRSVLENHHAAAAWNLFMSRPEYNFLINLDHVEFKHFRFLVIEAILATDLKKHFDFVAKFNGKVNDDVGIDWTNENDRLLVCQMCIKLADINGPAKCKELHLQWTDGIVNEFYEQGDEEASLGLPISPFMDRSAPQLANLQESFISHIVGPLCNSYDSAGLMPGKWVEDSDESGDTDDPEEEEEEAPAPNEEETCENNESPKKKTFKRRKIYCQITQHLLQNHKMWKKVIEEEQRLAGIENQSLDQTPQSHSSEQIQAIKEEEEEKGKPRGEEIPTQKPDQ

[23] = target: Sodium-dependent noradrenaline transporter (Homo sapiens) (UniProt P23975); experiment: NEUP/H Eurofins SafetyScreen44 (BI); settings: Compound concentration 10.0 uM
Sodium-dependent noradrenaline transporter (Homo sapiens), sequence (P23975 whole entry): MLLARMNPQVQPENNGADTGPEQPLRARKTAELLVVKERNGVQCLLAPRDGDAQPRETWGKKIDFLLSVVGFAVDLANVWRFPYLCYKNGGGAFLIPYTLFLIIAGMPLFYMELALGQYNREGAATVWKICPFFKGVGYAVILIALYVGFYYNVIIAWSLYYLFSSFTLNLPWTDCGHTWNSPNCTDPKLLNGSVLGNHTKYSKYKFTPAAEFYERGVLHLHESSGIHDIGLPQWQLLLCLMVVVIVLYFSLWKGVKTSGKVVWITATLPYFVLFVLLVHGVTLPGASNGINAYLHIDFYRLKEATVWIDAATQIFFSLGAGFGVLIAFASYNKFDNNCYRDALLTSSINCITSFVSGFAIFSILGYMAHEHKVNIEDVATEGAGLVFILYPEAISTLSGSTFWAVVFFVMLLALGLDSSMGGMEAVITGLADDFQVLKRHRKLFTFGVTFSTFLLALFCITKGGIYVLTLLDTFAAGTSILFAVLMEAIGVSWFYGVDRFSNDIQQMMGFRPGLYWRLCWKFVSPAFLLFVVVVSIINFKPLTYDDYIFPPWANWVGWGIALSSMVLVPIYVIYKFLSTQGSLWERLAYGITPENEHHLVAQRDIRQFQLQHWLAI

[24] = target: Histamine H2 receptor (Homo sapiens) (UniProt P25021); experiment: H2/APT/HS Eurofins SafetyScreen44 (BI); settings: filed as antagonist, Compound concentration 10.0 uM

IC50 [16] | Structure (SMILES) | residual activity [1] [%] | residual activity [2] [%] | residual activity [3] [%] | residual activity [4] [%] | residual activity [5] [%] | residual activity [6] [%] | residual activity [7] [%] | residual activity [8] [%] | residual activity [9] [%] | residual activity [10] [%] | residual activity [11] [%] | residual activity [12] [%] | residual activity [13] [%] | residual activity [14] [%] | residual activity [15] [%] | residual activity [17] [%] | residual activity [18] [%] | activity at 10 µM [19] | residual activity [20] [%] | also measured
≤ 0.003 µM (active) | CNC(=O)COc1cc2cc(Nc3nc(N4C[C@H](C)C[C@H](C)C4)ncc3Cl)ccc2n(C)c1=O | 115 | 78 | 85 | 103 | 81 | 100 | 93 | 90 | 110 | 100 | 92 | 100 | 101 | 106 | 99 | 111 | 106 | 99% (not active) | 101 | activity at 10 µM (hERG (KCNH2)): 76% (not active); residual activity [21]: 110%; residual activity [22]: 95%; residual activity [23]: 99%; residual activity [24]: 110%
10.2 µM (not active) | C[C@@H]1C[C@H](C)CN(c2ncc(Cl)c(Nc3ccc4c(c3)cc(OC(C)(C)C(=O)O)c(=O)n4C)n2)C1 | 86 | 88 | 97 | 104 | 44 | 137 | 128 | 97 | 111 | 97 | 107 | 111 | 95 | 92 | 99 | 104 | 111 | 104% (not active) | 89 | activity at 10 µM (hERG (KCNH2)): 95% (not active); residual activity [21]: 99%; residual activity [22]: 99%; residual activity [23]: 102%; residual activity [24]: 121%
